Reference: the NIST ThermoML archive (doi:10.1016/j.jct.2011.08.016)
Numbers after ± are expanded uncertainties.

Assay: xn = mol fraction of the nth substance listed
Details: Liquid, Vibrating tube method

CCCCCCCCCC [decane] + CCCCCCCC
mass density [kg/m3]
Details | x2 = 0.0616 | x2 = 0.2801 | x2 = 0.5314 | x2 = 0.7736
353.12 K, 10000 kPa | – | 687.61 ± 0.46 | 680.99 ± 0.47 | 673.43 ± 0.47
353.12 K, 10990 kPa | 693.88 ± 0.47 | 688.64 ± 0.47 | 682.03 ± 0.47 | 674.52 ± 0.48
353.12 K, 12000 kPa | 694.85 ± 0.47 | 689.64 ± 0.47 | 683.07 ± 0.48 | 675.55 ± 0.49
353.12 K, 13000 kPa | 695.8 ± 0.48 | 690.64 ± 0.48 | 684.09 ± 0.49 | 676.59 ± 0.49
353.12 K, 14000 kPa | 696.76 ± 0.48 | 691.6 ± 0.49 | 685.09 ± 0.49 | 677.61 ± 0.5
353.12 K, 15000 kPa | 697.7 ± 0.49 | 692.59 ± 0.49 | 686.08 ± 0.5 | 678.66 ± 0.51
353.12 K, 16000 kPa | 698.61 ± 0.5 | 693.55 ± 0.5 | 687.05 ± 0.51 | 679.66 ± 0.51
353.12 K, 17000 kPa | 699.52 ± 0.5 | 694.46 ± 0.51 | 688 ± 0.51 | 680.68 ± 0.52
353.12 K, 18000 kPa | 700.43 ± 0.51 | 695.35 ± 0.51 | 688.93 ± 0.52 | 681.63 ± 0.53
353.12 K, 19000 kPa | 701.32 ± 0.51 | 696.27 ± 0.52 | 689.85 ± 0.53 | 682.58 ± 0.53
353.12 K, 20000 kPa | 702.19 ± 0.52 | 697.16 ± 0.53 | 690.77 ± 0.53 | 683.51 ± 0.54
353.12 K, 21000 kPa | 703.05 ± 0.53 | 698.02 ± 0.53 | 691.66 ± 0.54 | 684.41 ± 0.55
353.12 K, 22000 kPa | 703.89 ± 0.53 | 698.88 ± 0.54 | 692.54 ± 0.55 | 685.32 ± 0.55
353.12 K, 23000 kPa | 704.72 ± 0.54 | 699.72 ± 0.55 | 693.39 ± 0.55 | 686.21 ± 0.56
353.12 K, 24000 kPa | 705.52 ± 0.55 | 700.52 ± 0.55 | 694.23 ± 0.56 | 687.06 ± 0.57
353.12 K, 25000 kPa | 706.29 ± 0.55 | 701.34 ± 0.56 | 695.07 ± 0.57 | 687.92 ± 0.58
363.02 K, 1000 kPa | – | – | 662.89 ± 0.42 | –
363.02 K, 2000 kPa | – | – | 664.16 ± 0.43 | –
363.02 K, 3000 kPa | – | – | 665.39 ± 0.43 | –
363.02 K, 4000 kPa | – | – | 666.61 ± 0.44 | –
363.02 K, 5000 kPa | – | – | 667.85 ± 0.44 | –
363.02 K, 6000 kPa | – | – | 669.05 ± 0.45 | –
363.02 K, 7000 kPa | – | – | 670.24 ± 0.45 | –
363.02 K, 8000 kPa | – | – | 671.39 ± 0.46 | –
363.02 K, 9000 kPa | – | – | 672.53 ± 0.46 | –
363.02 K, 10000 kPa | – | – | 673.66 ± 0.47 | –
363.02 K, 10990 kPa | – | – | 674.79 ± 0.48 | –
363.02 K, 12000 kPa | – | – | 675.87 ± 0.48 | –
363.02 K, 13000 kPa | – | – | 676.95 ± 0.49 | –
363.02 K, 14000 kPa | – | – | 678.01 ± 0.5 | –
363.02 K, 15000 kPa | – | – | 679.06 ± 0.5 | –
363.02 K, 16000 kPa | – | – | 680.09 ± 0.51 | –
363.02 K, 17000 kPa | – | – | 681.1 ± 0.52 | –
363.02 K, 18000 kPa | – | – | 682.1 ± 0.52 | –
363.02 K, 19000 kPa | – | – | 683.1 ± 0.53 | –
363.02 K, 20000 kPa | – | – | 684.05 ± 0.54 | –
363.02 K, 21000 kPa | – | – | 685 ± 0.54 | –
363.02 K, 22000 kPa | – | – | 685.91 ± 0.55 | –
363.02 K, 23000 kPa | – | – | 686.82 ± 0.56 | –
363.02 K, 24000 kPa | – | – | 687.69 ± 0.57 | –
363.02 K, 25000 kPa | – | – | 688.57 ± 0.57 | –
363.03 K, 1000 kPa | 675.72 ± 0.42 | – | – | –
363.03 K, 2000 kPa | 676.86 ± 0.42 | – | – | –
363.03 K, 3000 kPa | 678.03 ± 0.43 | – | – | –
363.03 K, 4000 kPa | 679.17 ± 0.43 | – | – | –
363.03 K, 5000 kPa | 680.28 ± 0.44 | – | – | –
363.03 K, 6000 kPa | 681.38 ± 0.44 | – | – | –
